From the NIST ThermoML archive (doi:10.1016/j.jct.2017.05.026)
± gives the expanded uncertainty stated by the source.

Legend:
[1] = excess molar enthalpy (molar enthalpy of mixing); xn = mol fraction of the nth substance listed; conditions: 298 K, 100 kPa, Crystal, Calvet calorimetry
[2] = xn = mol fraction of the nth substance listed; conditions: 298 K, 100 kPa, Crystal, X-ray diffraction

Compound: [O-2].[O-2].[Th+4] [thorium dioxide] + [O-2].[O-2].[U+4]
- excess molar enthalpy ([1]; x1 = 0.2209): -1.65 ± 0.765 kcal/mol
- excess molar enthalpy ([1]; x1 = 0.4319): 0.37 ± 1.12 kcal/mol
- excess molar enthalpy ([1]; x1 = 0.7519): -0.282 ± 0.669 kcal/mol
- mass density ([2]; x1 = 0.2209): 10730 ± 90 kg/m3
- mass density ([2]; x1 = 0.4319): 10510 ± 90 kg/m3
- mass density ([2]; x1 = 0.7519): 10070 ± 90 kg/m3

Compound: [O-2].[O-2].[Zr+4] [zirconium oxide] + [O-2].[O-2].[U+4]
- excess molar enthalpy ([1]; x1 = 0.0847): -2.18 ± 1 kcal/mol
- excess molar enthalpy ([1]; x1 = 0.1557): -2.12 ± 0.837 kcal/mol
- excess molar enthalpy ([1]; x1 = 0.2937): 0.194 ± 0.765 kcal/mol
- mass density ([2]; x1 = 0.0847): 10630 ± 90 kg/m3
- mass density ([2]; x1 = 0.1557): 10260 ± 90 kg/m3
- mass density ([2]; x1 = 0.2937): 9570 ± 70 kg/m3
